# Data reported in US20130022644A1, “NOVEL N-PHENYLACETAMIDE DERIVATIVES, WHICH INHIBIT THE ENZYME SOAT-1, AND PHARMACEUTICAL AND COSMETIC COMPOSITIONS CONTAINING THEM” (GALDERMA RESEACH & DEVELOPMENT, priority 2009, published 2013).
# Columns and labels:
# [1] = biological target: T1, enzyme ACAT-1 (Homo sapiens, UniProt P35610); experiment: HepG2 NBD-cholesterol fluorescence test for inhibitory activity towards the enzyme ACAT-1 (SOAT-1); assay type: cell-based; details: HepG2 cells, NBD-cholesterol 1 μg/ml, incubation 6 hours at 37° C., fluorescence ex 490 nm / em 540 nm
# T1 construct: endogenous in cells; host or cells: HepG2
# T1 sequence (P35610 1-550): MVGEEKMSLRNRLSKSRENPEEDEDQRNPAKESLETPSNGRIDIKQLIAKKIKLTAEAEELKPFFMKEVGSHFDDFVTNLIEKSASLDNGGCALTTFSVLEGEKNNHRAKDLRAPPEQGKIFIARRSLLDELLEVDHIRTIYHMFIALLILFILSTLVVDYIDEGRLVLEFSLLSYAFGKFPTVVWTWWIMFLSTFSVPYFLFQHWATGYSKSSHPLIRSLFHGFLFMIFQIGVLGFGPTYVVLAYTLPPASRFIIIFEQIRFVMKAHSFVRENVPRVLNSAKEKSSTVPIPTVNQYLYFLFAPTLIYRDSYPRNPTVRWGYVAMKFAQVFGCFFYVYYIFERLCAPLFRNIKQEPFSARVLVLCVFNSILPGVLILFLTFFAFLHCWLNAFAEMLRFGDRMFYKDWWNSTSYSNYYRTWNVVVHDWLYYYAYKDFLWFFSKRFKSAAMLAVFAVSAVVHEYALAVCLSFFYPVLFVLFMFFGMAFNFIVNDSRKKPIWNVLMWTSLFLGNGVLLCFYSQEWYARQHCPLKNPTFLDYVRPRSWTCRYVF
# Description: The compounds (1) according to the invention, and also the pharmaceutically acceptable salts, solvates and/or hydrates thereof, have inhibitory properties on the enzyme SOAT-1. This inhibitory activity on the enzyme SOAT-1 is measured according to a HepG2 primary enzymatic test, as described in Example 3.
# The compounds of formula (I) according to the invention were subjected to a test for evaluating their inhibitory activity towards the enzyme ACAT-1, inspired by the following publication: “Identification of ACAT1- and ACAT2-specific inhibitors using a novel, cell based fluorescence assay: individual ACAT uniqueness”, J. Lipid. Res. (2004) vol. 45, pages 378-386.
# The principle of this test is based on the use of NBD-cholesterol, a cholesterol analogue whose fluorescence depends on its environment. When this molecule is in a polar environment, it is weakly fluorescent, whereas in a non-polar environment, it is strongly fluorescent. […]
# The method below is applied: HepG2 cells are incubated in the presence of NBD-cholesterol (1 μg/ml) and of the test compound of formula (I) in black transparent-bottomed 96-well plates, at a rate of 30 000 cells per well. […] After addition of 50 μl of lysis buffer (10 mM NaPO4, 1% Igepal), the plates are shaken for 5 minutes and the fluorescence is read (excitation at 490 nm, emission at 540 nm) on a Fusion machine (Perkin-Elmer). […]
smiles,measurement,setting,value
"CCCC1(C)C(=O)N(CC(=O)Nc2c(C(C)C)cccc2C(C)C)C(=O)N1c1ccc(C)cc1 (centres unmarked) [Compound 1, N-(2,6-Diisopropylphenyl)-2-(4-methyl-2,5-dioxo-4-propyl-3-p-tolylimidazolidin-1-yl)acetamide]",melting point,,186 °C
same,IC50,[1],9 nM
